Like-named read-outs stand apart in the source and are kept apart here.
Columns and labels:
Type in all cases: cell-based, human
[1] = test system: SK-OV-3 cells; assay: CCK-8 anti-proliferative assay, SK-OV-3; conditions: co-incubated 48 h, read-out: Anti-proliferative activity (IC50 ± standard deviation) SK-OV-3
Protocol: (§1) The obtained quinazolinyl-aryl urea derivatives were screened for compounds with optimal activity using the following method.
(§2) Experimental Procedure for Anti-Proliferative Activity Evaluation: The CCK-8 assay was employed. Cells in logarithmic growth phase were harvested, adjusted to appropriate density, and uniformly seeded into 96-well plates using a multichannel pipette (180 μL cell suspension containing complete medium per well, 5,000 cells/well). Blank control wells (containing basal medium, CCK-8 solution, and DMSO only) were set. Cells were incubated at 37° C. under 5% CO2. After 70% confluency was reached, test compounds (target compounds/positive controls) were added at final concentrations of 1, 2, 4, 6, 8, 12, 16, 24, and 30 μM (3 repeated wells per concentration). Compounds were pre-dissolved in DMSO, sterilized, and diluted with medium before adding 20 μL/well. After co-incubation for designated durations, 10 μL CCK-8 solution was added per well followed by 1-4 h incubation (different cells have different incubation times). […] Inhibition rates were calculated as: (ODcontrol−ODtreatment)/ODcontrol×100%. Median inhibitory concentrations (IC50 values) were derived using Origin v8.0 software.

[2] = test system: immortalized ureteral epithelial cells (SV-HUC-1); assay: CCK-8 anti-proliferative assay, normal cells SV-HUC-1; conditions: read-out: Anti-proliferative activity (IC50 ± standard deviation) SV-HUC-1
Protocol: as §1, §2

[3] = test system: J82 cells; assay: CCK-8 anti-proliferative assay, J82; conditions: Table 6; co-incubated 48 h; read-out: Anti-proliferative activity (IC50 ± standard deviation) J82
Protocol: as §1, §2

[4] = test system: A549 cells; assay: CCK-8 anti-proliferative assay, A549; conditions: Table 8; co-incubated 48 h; read-out: Anti-proliferative activity (IC50 ± standard deviation) A549
Protocol: as §1, §2

[5] = test system: 5637 cells; assay: CCK-8 anti-proliferative assay, 5637; conditions: Table 6; co-incubated 48 h; read-out: Anti-proliferative activity (IC50 ± standard deviation) 5637
Protocol: as §1, §2

[6] = test system: BxPC-3 cells; assay: CCK-8 anti-proliferative assay, BxPC-3; conditions: co-incubated 48 h, read-out: Anti-proliferative activity (IC50 ± standard deviation) BxPC-3
Description: (§3) The obtained quinazolinyl-aryl urea derivatives were screened for compounds with optimal activity using the following method. All cell lines employed in this experiment were of human origin, including: bladder cancer cells: J82, UM-UC-3, T24, 5637, pancreatic cancer cells: BxPC-3, PANC-1, osteosarcoma cells: 143B, MG-63, cervical cancer cells: HeLa, breast cancer cells: MCF-7, NSCLC cells: A549, hepatoblastoma cells: Hep G2, and ovarian cancer cells: SK-OV-3, as well as normal cell lines: immortalized ureteral epithelial cells (SV-HUC-1), embryonic lung fibroblasts (WI-38).
(§4) Experimental Procedure for Anti-Proliferative Activity Evaluation: The CCK-8 assay was employed. Cells in logarithmic growth phase were harvested, adjusted to appropriate density, and uniformly seeded into 96-well plates using a multichannel pipette (180 μL cell suspension containing complete medium per well, 5,000 cells/well). Blank control wells (containing basal medium, CCK-8 solution, and DMSO only) were set. Cells were incubated at 37° C. under 5% CO2. After 70% confluency was reached, test compounds (target compounds/positive controls) were added at final concentrations of 1, 2, 4, 6, 8, 12, 16, 24, and 30 μM (3 repeated wells per concentration). Compounds were pre-dissolved in DMSO, sterilized, and diluted with medium before adding 20 μL/well. After co-incubation for designated durations, 10 μL CCK-8 solution was added per well followed by 1-4 h incubation (different cells have different incubation times). The reaction was terminated, and OD (optical density) values at 450 nm were measured using a microplate reader. Inhibition rates were calculated as: (ODcontrol−ODtreatment)/ODcontrol×100%. Median inhibitory concentrations (IC50 values) were derived using Origin v8.0 software.

[7] = test system: PANC-1 cells; assay: CCK-8 anti-proliferative assay, PANC-1; conditions: co-incubated 48 h, read-out: Anti-proliferative activity (IC50 ± standard deviation) PANC-1
Description: as §3, §4

[8] = test system: HeLa cells; assay: CCK-8 anti-proliferative assay, HeLa; conditions: Table 8; co-incubated 48 h; read-out: Anti-proliferative activity (IC50 ± standard deviation) HeLa
Protocol: as §1, §2

[9] = test system: MG-63 cells; assay: CCK-8 anti-proliferative assay, MG-63; conditions: co-incubated 48 h, read-out: Anti-proliferative activity (IC50 ± standard deviation) MG-63
Description: as §3, §4

[10] = test system: UM-UC-3 cells; assay: CCK-8 anti-proliferative assay, UM-UC-3; conditions: co-incubated 48 h, read-out: Anti-proliferative activity (IC50 ± standard deviation) UM-UC-3
Protocol: as §1, §2

[11] = test system: MCF-7 cells; assay: CCK-8 anti-proliferative assay, MCF-7; conditions: Table 8; co-incubated 48 h; read-out: Anti-proliferative activity (IC50 ± standard deviation) MCF-7
Protocol: as §1, §2

[12] = test system: 143B cells; assay: CCK-8 anti-proliferative assay, 143B; conditions: co-incubated 48 h, read-out: Anti-proliferative activity (IC50 ± standard deviation) 143B
Description: as §3, §4

[13] = test system: T24 cells; assay: CCK-8 anti-proliferative assay, T24; conditions: Table 6; co-incubated 48 h; read-out: Anti-proliferative activity (IC50 ± standard deviation) T24
Description: as §3, §4

[14] = test system: Hep G2 cells; assay: CCK-8 anti-proliferative assay, Hep G2; conditions: Table 8; co-incubated 48 h; read-out: Anti-proliferative activity (IC50 ± standard deviation) Hep G2
Description: as §3, §4

[15] = test system: embryonic lung fibroblasts (WI-38); assay: CCK-8 anti-proliferative assay, normal cells WI-38; conditions: Table 9, co-incubated 48 h, read-out: Anti-proliferative activity (IC50 ± standard deviation) WI-38
Description: as §3, §4

[16] = Table 9, normal cells, co-incubated 48 h
[17] = Homo sapiens, SK-OV-3, Table 15, comparative compounds
[18] = Homo sapiens, BXPC-3, Table 15, comparative compounds
[19] = Homo sapiens, PANC-1, Table 15, comparative compounds
[20] = Homo sapiens, MG-63, Table 14, comparative compounds
[21] = Homo sapiens, UMUC3, Table 14, comparative compounds
[22] = Homo sapiens, 143B, Table 14, comparative compounds

SMILES | IC50 [1, 17] | IC50 [6, 18] | IC50 [7, 19] | IC50 [9, 20] | IC50 [10, 21] | IC50 [12, 22] | further results
[NH2][Pt]([NH2])([Cl])[Cl] [CDDP, cisplatin, reference compound] | – | – | – | – | – | – | IC50 ([1]; Table 9): 9.89 ± 0.97 µM; IC50 [2, 16]: 10.3 ± 0.68 µM
COc1cc2ncnc(NCc3cccc(NC(=O)Nc4ccccc4)c3)c2cc1OCCCCCCN1CCN(CCN2CCOCC2)CC1 [Compound 8-1a, N-(3-(((7-methoxy-6-((6-(4-(2-morpholinoethyl)piperazin-1-yl)hexyl)oxy)quinazolin-4-yl)a-mino)methyl)phenyl)-N′-phenylurea] | – | – | – | – | – | – | IC50 [3]: > 30 µM; IC50 ([1]; Table 9): 28.1 ± 1.72 µM; IC50 [4]: > 30 µM; IC50 [5]: 26.4 ± 1.63 µM; IC50 ([6]; Table 7): 15.7 ± 0.78 µM; IC50 ([7]; Table 7): > 30 µM; IC50 [8]: > 30 µM; IC50 ([9]; Table 7): 27.3 ± 1.51 µM; IC50 ([10]; Table 6): > 30 µM; IC50 [11]: > 30 µM; IC50 ([12]; Table 7): 18.7 ± 1.63 µM; IC50 [13]: > 30 µM; IC50 [14]: > 30 µM; IC50 [2, 16]: > 30 µM; IC50 [15]: 25.9 ± 2.74 µM
COc1cc2ncnc(NCc3cccc(NC(=O)Nc4ccccc4)c3)c2cc1OC [Compound I-1, reference compound] | 28.4 ± 1.46 µM | 18.6 ± 1.66 µM | > 30 µM | 27.1 ± 1.45 µM | > 30 µM | 18.3 ± 1.74 µM | –
COc1cc2ncnc(NCc3cccc(NC(=O)Nc4ccc(C)cc4)c3)c2cc1OC [Compound I-2, reference compound] | 10.1 ± 0.69 µM | 10.3 ± 0.59 µM | 24.4 ± 1.69 µM | 11.2 ± 0.67 µM | 11.2 ± 0.85 µM | 6.34 ± 0.56 µM | –
COc1cc2ncnc(NCc3cccc(NC(=O)Nc4ccc(C)cc4C)c3)c2cc1OC [Compound I-3, reference compound] | 9.17 ± 0.58 µM | 7.78 ± 0.69 µM | 17.6 ± 1.48 µM | 12.1 ± 0.76 µM | 9.02 ± 0.74 µM | 5.94 ± 0.33 µM | –
CCc1ccccc1NC(=O)Nc1cccc(CNc2ncnc3cc(OC)c(OC)cc23)c1 [Compound I-5, reference compound] | 7.76 ± 0.38 µM | 6.54 ± 0.61 µM | 12.5 ± 0.97 µM | 13.4 ± 0.95 µM | 10.5 ± 0.71 µM | 6.47 ± 0.28 µM | –
COc1ccccc1NC(=O)Nc1cccc(CNc2ncnc3cc(OC)c(OC)cc23)c1 [Compound I-6, reference compound] | 9.12 ± 0.44 µM | 23.6 ± 1.47 µM | 26.5 ± 2.36 µM | 25.4 ± 1.74 µM | 20.6 ± 2.37 µM | 19.3 ± 1.67 µM | –
COc1ccc(NC(=O)Nc2cccc(CNc3ncnc4cc(OC)c(OC)cc34)c2)cc1 [Compound I-7, reference compound] | 13.7 ± 0.85 µM | 22.8 ± 1.71 µM | > 30 µM | > 30 µM | 18.6 ± 1.35 µM | 21.3 ± 1.59 µM | –
COc1cc2ncnc(NCc3cccc(NC(=O)Nc4ccc(F)cc4)c3)c2cc1OC [Compound I-9, reference compound] | 10 ± 0.53 µM | 8.62 ± 0.86 µM | 10.7 ± 0.95 µM | 14.8 ± 1.22 µM | 9.56 ± 0.72 µM | 6.11 ± 0.42 µM | –
COc1cc2ncnc(NCc3cccc(NC(=O)Nc4ccccc4Cl)c3)c2cc1OC [Compound I-10, reference compound] | 11.2 ± 0.92 µM | 9.85 ± 0.76 µM | 11.7 ± 0.82 µM | 11.1 ± 0.54 µM | 8.77 ± 0.41 µM | 7.74 ± 0.39 µM | –
COc1cc2ncnc(NCc3cccc(NC(=O)NCc4ccccc4)c3)c2cc1OC [Compound I-14, reference compound] | 19.7 ± 0.73 µM | 12.3 ± 0.56 µM | > 30 µM | > 30 µM | > 30 µM | > 30 µM | –
O=C(Nc1ccccc1)Nc1cccc(CNc2ncnc3ccccc23)c1 [Compound II-1, reference compound] | > 30 µM | 27.6 ± 1.91 µM | > 30 µM | > 30 µM | > 30 µM | > 30 µM | –
Cc1cccc(NC(=O)Nc2cccc(CNc3ncnc4ccccc34)c2)c1 [Compound II-2, reference compound] | 19.5 ± 1.37 µM | 15.5 ± 1.71 µM | > 30 µM | 19.3 ± 1.76 µM | 22.8 ± 1.38 µM | 13.2 ± 0.86 µM | –
Cc1ccc(NC(=O)Nc2cccc(CNc3ncnc4ccccc34)c2)cc1 [Compound II-3, reference compound] | 14.7 ± 0.98 µM | 14.3 ± 0.86 µM | > 30 µM | 17.8 ± 0.95 µM | 17.8 ± 0.57 µM | 11.3 ± 0.88 µM | –
CCc1cccc(CC)c1NC(=O)Nc1cccc(CNc2ncnc3ccccc23)c1 [Compound II-5, reference compound] | 8.4 ± 0.53 µM | 9.92 ± 0.41 µM | 14.8 ± 1.24 µM | 10.5 ± 0.82 µM | 8.72 ± 0.36 µM | 7.26 ± 0.35 µM | –
CC(C)(C)c1ccc(NC(=O)Nc2cccc(CNc3ncnc4ccccc34)c2)cc1 [Compound II-9, reference compound] | 7.78 ± 0.69 µM | 13.3 ± 0.87 µM | 15.7 ± 1.52 µM | 9.24 ± 0.71 µM | 9.77 ± 0.52 µM | 10.5 ± 0.43 µM | –
O=C(Nc1ccc(C(F)(F)F)cc1)Nc1cccc(CNc2ncnc3ccccc23)c1 [Compound II-13, reference compound] | 15 ± 1.74 µM | 8.43 ± 0.39 µM | 26.2 ± 2.26 µM | 20.8 ± 0.95 µM | 9.63 ± 0.52 µM | 7.56 ± 0.27 µM | –
O=C(Nc1cccc(CNc2ncnc3ccccc23)c1)Nc1ccc(Cl)cc1Cl [Compound II-17, reference compound] | 9.27 ± 0.55 µM | 14.2 ± 0.82 µM | 20.7 ± 0.96 µM | 8.54 ± 0.59 µM | 7.69 ± 0.56 µM | 10.3 ± 0.67 µM | –
CNC(=O)c1cc(Oc2ccc(NC(=O)Nc3ccc(Cl)c(C(F)(F)F)c3)c(F)c2)ccn1 [Reg, regorafenib, reference compound] | – | – | – | – | – | – | IC50 ([2]; Homo sapiens, SV-HUC1, 48 h): 11.4 ± 0.69 µM

From patent US20260285816A1, “Piperazinyl-Modified Quinazolinyl-Aryl Urea Derivative, And Preparation Method And Use Thereof” (Guangxi Normal University, priority 2025, published 2026)
